Test results published in paper PMC2904697, “A Screen for Kinetochore-Microtubule Interaction Inhibitors Identifies Novel Antitubulin Compounds” (PLoS ONE, 2010).
Where “and” joins values, the source holds several entries; their conditions need not be identical. Equal entries are not always repeated.

Assays:
[1] = molecular target: recombinant human Ndc80 kinetochore complex binding to taxol-stabilized microtubules; assay: Ndc80^488 complex-MT binding assay (fluorescence microscopy / TIRF); conditions: for IC50: total internal reflection fluorescence microscopy, Ndc80^488 complex 0.1 µmol/l, taxol-stabilized MTs; for Fold more active than compound B in the Ndc80^488 complex-MT binding assay: versus compound B
Description: To screen compound libraries for molecules inhibiting binding of the outer kinetochore Ndc80 complex (Ndc80, Nuf2, Spc24, Spc25) to MTs, we used a fluorescence microscopy-based in vitro approach (Fig. 1). First, the recombinant human Ndc80 construct, used to crystallize the complex, was produced in Escherichia coli using a bicistronic plasmid from which the Nuf2-Spc24 and Ndc80-Spc25 peptides were generated (Fig. 1A). Following their intracellular assembly, the complex was purified from E. coli cell extract based on the GST tag at the N-terminus of Nuf2. The complex was released in solution with PreScission Protease (its recognition sequence was introduced between the GST tag and the NUF2 coding sequence) and was separated from contaminants by gel filtration chromatography (Fig. 1A). The high degree of purity of the preparation was confirmed by SDS-PAGE analysis and coomassie staining, which identified only both peptides (Fig. 1B). Next, the Ndc80 complex was fluorescently labeled with the Alexa Fluor 488 C5-maleimide (next named the Ndc80^488 complex) and was separated from unreacted fluorophore by gel filtration chromatography. The final preparation was highly pure as evidenced by gel filtration analysis and detection at 519 nm (emission maximum of the Alexa Fluor 488 dye) and at 280 nm (intrinsic protein fluorescence) (Fig. 1B). Next, the Ndc80^488 complex (0.1 µmol/l) was incubated with 10,200 compounds (comprising the Chembridge DIVERset and a compound collection from the Univ. Rome) at a starting concentration of 50 µmol/l. Binding (or lack thereof) of the complex to rhodamine-labeled taxol-stabilized MTs (0.1 µmol/l) was scored by wide-field fluorescence microscopy (Fig. 1C; images in Fig. 2A). […] Total internal reflection fluorescence microscopy was used to establish the IC50 value of the compound, which was measured to be ∼20 µmol/l (Fig. 2C).
Recombinant human Ndc80 complex (Ndc80^Bonsai complex) was produced in Escherichia coli using a bicistronic expression plasmid (Fig. 1A, [12]). Following transcription from the TAC promoter/operator by induction with 0.4 mmol/l IPTG (20°C, 15 h), GST-Nuf2-Spc24 and Ndc80-Spc25 polypeptides were generated, which dimerized intracellulary into the GST-Ndc80 complex. The complex was isolated from E. coli cell extract following incubation with glutathione beads. The complex was released from the beads with PreScission Protease (GE Healthcare Life Sciences) and contaminants were removed by gel filtration chromatography (Superdex 200, GE Healthcare Life Sciences). On average 4 mg of Ndc80 complex were obtained from 1 liter of cell culture. Next, 1 mg Ndc80 complex was labeled with 0.1 mg Alexa Fluor 488 C5-maleimide fluorophore (Invitrogen) at a 1.5-2 stoichiometry. The fluorescent complex (Ndc80^488 complex) was separated from unreacted fluorophore by gel filtration chromatography (Fig. 1B) and was then used to screen for compounds inhibiting Ndc80^488 complex-MT binding (Fig. 1C). The Ndc80^488 complex is fully functional as it is recruited to and acts at kinetochores when injected into prometaphase HeLa cells.
MTs were polymerized (30 min, 37°C) from a 1∶10 mixture of rhodamine-labeled:unlabeled bovine brain αβ-tubulin (Cytoskeleton) in BRB-80 buffer (80 mmol/l PIPES pH 6.8, 1 mmol/l MgCl2, 1 mmol/l EGTA) and were then stabilized with 20 µmol/l taxol. The Ndc80^488 complex (0.1 µmol/l) was incubated with 100 µmol/l compound (30 min, 24°C) in 96-well polypropylene plates (Eppendorf). The 10,000 compound DIVERset library (Chembridge) and 200 compounds from the Department of Medicinal Chemistry and Technologies, University of Rome La Sapienza were used in the screen. Next, the MTs (100 nmol/l) were added to the compound-Ndc80^488 complex solution in a 1∶1 v/v ratio. After incubation (10 min, 24°C), the reaction mixtures were transferred to 96-well glass-bottom plates (Greiner Bio-one). […]

HeLa cells = assay: Mitotic delay and cell death in G1/S-synchronized HeLa cells (time-lapse videomicroscopy); format: cell-based, human; conditions: HeLa released from G1/S; 500 nmol/l
Procedure: At compound B concentrations of 5 µmol/l and above, the cells arrested robustly in metaphase (∼15 h) and then underwent cell death, as diagnosed by cell shrinkage (Fig. 3B). […] This phenotype is indicative of chromatids being unable to bind to spindle MTs and/or of spindle defects, as observed with nocodazole (Fig. 3C). […] Because drugs that inhibit tubulin polymerization also destabilize MTs, we next probed whether compound B destabilized metaphase spindles. We arrested HeLa cells in metaphase using 10 µmol/l of proteosome inhibitor MG132. […] Thus, compound B prevents tubulin assembly and destabilizes spindle MTs in cells.
Next, we determined whether the elevated antitubulin activities of compounds A6, A8, D7 and E7 (versus compound B), and the discrepancies in activity between the compounds themselves were reflected in their effects on mitosis. G1/S synchronized HeLa cells were released into growth medium containing 100 or 500 nmol/l of these compounds or compound B; the duration of the mitotic delay by the compounds and the percentage of cells undergoing subsequent cell death were scored. […] The four compounds triggered mitotic delays to an extent that directly reflects their activities in vitro (compare Fig. 6E and Fig. 6, panels B to D). […] Of note, each of our compounds acted in cells with an efficacy exceeding those measured in vitro (compare Fig. 6E and Fig. 5). This discrepancy may be due to increased compound:tubulin ratios in cells. Alternatively, the compounds may be modified intracellularly, resulting in enhanced activity. Because compound B and the four second-generation compounds are 6-furan-2-yl-3-methyl-4-oxo-4,5,6,7-tetrahydro-1H-indole-2-carboxylic acid derivatives, we have named these tubulin inhibitors “furan-metoticas”.

[2] = tested on: colchicine site in αβ-tubulin; assay: [3H]colchicine competition (DEAE-cellulose filter method); format: binding; conditions: [3H]colchicine 5 µmol/l, tubulin 1 µmol/l
Description: Agents that inhibit tubulin polymerization and destabilize MTs include the colchicinoids, combretastatins, benzimidazole carbamates, vinca alkaloids, and maytansinoids. These drugs act primarily at β-tubulin in the αβ-heterodimer, albeit at different sites. Colchicinoids, combretastatins and benzimidazole carbamates (e.g. nocodazole) localize to the colchicine site near the C-terminus of β-tubulin at the αβ-tubulin intradimer interface, [16], whereas vinca alkaloids and maytansinoids localize to the N-terminal GTPase domain of β-tubulin [17], [18]. […] Its binding affinity, however, was ∼3-fold lower than that of nocodazole (compare values at 5 µmol/l and 20 µmol/l, Fig. 5C).
Tubulin binding of [^3H]colchicine was measured by the DEAE-cellulose filter method. Reaction mixtures contained 1.0 µmol/l αβ-tubulin, 1.0 mol/l monosodium glutamate, 0.1 mol/l glucose-1-phosphate, 1.0 mmol/l MgCl2, 1.0 mmol/l GTP, 0.5 mg/ml BSA, 5% DMSO, 5 µmol/l [^3H]colchicine, and inhibitor at 1, 5, 20 or 50 µmol/l. These reaction conditions strongly stabilize the colchicine-binding activity of tubulin [21].

αβ-tubulin = assay: Tubulin polymerization tracked turbidimetrically at 350 nm; format: biochemical; conditions: turbidimetric; versus compound B
Procedure: To quantify the antitubulin activity of compound B, we added 1–50 µmol/l compound B to 10 µmol/l αβ-tubulin. […] For this purpose, MTs were assembled from 10 µmol/l αβ-tubulin; 5 min into the reaction compound B was added in concentrations up to 200 µmol/l. MT depolymerization was tracked as a decrease in turbidity at 350 nm (Fig. 5B).
Polymerization of 10 µmol/l αβ-tubulin in BRB-80 buffer was monitored turbidimetrically at 350 nm for 15 min in a temperature-controlled spectrophotometer (37°C; SpectraMax Plus^384, Molecular Devices). To probe the effect of a compound on MT stability the molecule was added 5 min after initiation of tubulin assembly. The decrease in protein turbidity (350 nm) resulting from MT depolymerization was followed for 15 min at 37°C [13]. Quantitative comparisons of drug effects on tubulin assembly were also examined in 0.8 M glutamate with a 15 min drug-tubulin preincubation prior to the addition of GTP [14]. Tubulin assembly was monitored for 20 min at 30°C in Beckman DU7400/7500 spectrophotometers, and the compound concentration inhibiting tubulin assembly by 50% was determined.

taxol-stabilized MTs = assay: Compound-based depolymerization of taxol-stabilized MTs in vitro; format: biochemical, bovine; conditions: compound 50 µmol/l; taxol (20 µmol/l)-stabilized MTs
Procedure: To test this hypothesis, we treated HeLa cells with 0.5 µmol/l taxol, thereby arresting them in metaphase with stabilized spindles. […] To quantify the taxol-mediated inhibition of MT disassembly by compound B, we measured in vitro the depolymerization of taxol (20 µmol/l)-stabilized MTs following incubation with 50 µmol/l compound B (the screen condition). Nocodazole and maytansine (both at 50 µmol/l) were included as controls. At 50 µmol/l, compound B depolymerized 3% of the taxol-stabilized MT population, while nocodazole and maytansine depolymerized 11% and 31% of the taxol-treated MTs, respectively (Fig. 4B). […] This finding further supports our hypothesis that the interaction of compound B with the stabilized MTs must have prevented the Ndc80^488 complex from establishing contact with the MT surface.
MTs were polymerized (30 min, 37°C) from a 1∶10 mixture of rhodamine-labeled:unlabeled bovine brain αβ-tubulin (Cytoskeleton) in BRB-80 buffer (80 mmol/l PIPES pH 6.8, 1 mmol/l MgCl2, 1 mmol/l EGTA) and were then stabilized with 20 µmol/l taxol. The Ndc80^488 complex (0.1 µmol/l) was incubated with 100 µmol/l compound (30 min, 24°C) in 96-well polypropylene plates (Eppendorf). The 10,000 compound DIVERset library (Chembridge) and 200 compounds from the Department of Medicinal Chemistry and Technologies, University of Rome La Sapienza were used in the screen. Next, the MTs (100 nmol/l) were added to the compound-Ndc80^488 complex solution in a 1∶1 v/v ratio. After incubation (10 min, 24°C), the reaction mixtures were transferred to 96-well glass-bottom plates (Greiner Bio-one). Each well was imaged at 519 nm and 590 nm with an IX81 Olympus inverted wide-field microscope (Olympus). Total internal reflection fluorescence imaging was performed with an Olympus IX71 inverted wide-field microscope (Olympus). ImageJ was used for image processing (NIH, USA).
Taxol-stabilized MTs were prepared and diluted as described for the Ndc80^488 binding experiments. Varying compound concentrations in 10 µl of DMSO were added to 490 µl of diluted MTs at 37°C. Following incubation (30 min, 37°C), 450 µl of each mixture was centrifuged (10 min; 30,000 rpm; 37°C) in a Beckman Optima TLX centrifuge (TLA120.1 rotor). Pellets were dissolved in 25 µl of 8 mol/l urea, and the protein content of 20 µl was compared with that from pellets formed without compound.

## C=CCOC(=O)c1[nH]c2c(c1C)C(=O)C[C@@H](c1ccco1)C2 [E7]
[1]
  IC50: ~1000 nM and 1000 nM
  Fold more active than compound B in the Ndc80^488 complex-MT binding assay: ~20 fold
HeLa cells
  Effect on mitosis at 500 nmol/l: robust mitotic block, followed by cell death
[2]
  Fold more active than compound B as inhibitors of [3H]colchicine-tubulin binding: 3 fold
αβ-tubulin
  Fold lower IC50 for inhibiting tubulin assembly than that of compound B: 4.0 fold

## Cc1c(C(=O)OC2CCCCC2)[nH]c2c1C(=O)C[C@@H](c1ccco1)C2 [A6]
[1]
  IC50: ~1000 nM and 1000 nM
  Fold more active than compound B in the Ndc80^488 complex-MT binding assay: ~20 fold
[2]
  Fold more active than compound B as inhibitors of [3H]colchicine-tubulin binding: 3 fold
αβ-tubulin
  Fold lower IC50 for inhibiting tubulin assembly than that of compound B: 2.3 fold

## COc1cc2cc(c1Cl)N(C)C(=O)C[C@H](OC(=O)[C@H](C)N(C)C(C)=O)[C@]1(C)O[C@H]1[C@H](C)[C@@H]1C[C@@](O)(NC(=O)O1)[C@H](OC)/C=C/C=C(\C)C2 [maytansine, reference compound]
taxol-stabilized MTs
  Taxol-stabilized MT population depolymerized: 31%

## C/C=C/COC(=O)c1[nH]c2c(c1C)C(=O)C[C@@H](c1ccco1)C2 [D7]
[1]
  IC50: ~1000 nM and 1000 nM
  Fold more active than compound B in the Ndc80^488 complex-MT binding assay: ~20 fold
HeLa cells
  Effect on mitosis at 500 nmol/l: robust mitotic block, followed by cell death
[2]
  Fold more active than compound B as inhibitors of [3H]colchicine-tubulin binding: 3 fold
αβ-tubulin
  Fold lower IC50 for inhibiting tubulin assembly than that of compound B: 3.0 fold
